# Assay results from patent US20080096967A1, “Formulations for Injection of Catecholic Butanes, Including Ndga Compounds, Into Animals” (priority 2005, published 2008).
# Key:
# Sprague-Dawley rats = assay: 8-Day IV infusion toxicity study in Sprague-Dawley rats; assay type: in vivo
# Protocol: Escalating doses of 0, 100, 150, or 200 mg/kg M4N in 10% HP-β-CD in PEG 300 (6.25 mg/mL) were administered by IV infusion once every four days to male and female Sprague-Dawley rats (3/each sex) at 8 mL/kg/hr. […] […] One male rat was found dead on the first day dosage during administration of the vehicle and one female rat was found dead on day 5 of the study at the end of the infusion of 100 mg/kg of the test material. These deaths were not considered related to the test article because for one rat no test article (only vehicle) was administered and for the other rat, this was a single event with other rats surviving multiple days of dosing at 200 mg/kg/day.
# Beagle dogs = assay: 7-Day intravenous infusion toxicity study of M4N(CPE) in Beagle dogs; assay type: in vivo
# Protocol: This study was conducted to evaluate the toxicokinetic profile of M4N formulated in 30% HP-β-CD and 25% PEG 300 when administered as a single intravenous infusion dose for seven consecutive days in beagle dogs. This study constitutes the first study of this particular formulation of M4N in dogs and was executed to evaluate the toxicity and compare tolerability of a diluted formulation (10 mg/mL versus 5 mg/mL).
# A total of twelve beagle dogs (8 male/4 female) were dosed with M4N via a 54-minute (Group 2) or 108-minute (Groups 1, 3 and 4) intravenous infusion. All animals received seven doses, one per day over seven consecutive days.
# The following parameters were evaluated: clinical observations and body weights. Test article analysis was performed on Study Days 1 and 7, blood samples (targeting a volume of 2.0 mL) were collected from each animal from an appropriate vessel at the following time points:
# Gross necropsies were performed on Groups 1 and 3 animals and all injection sites were processed for histology. […] Discolored urine appeared in Groups 1 and 3. […] The finding is likely indicative of irritation due to multiple needle insertions in the same dosing area (cephalic vein). […] Finally, sporadic observations of diarrhea, emesis, mucoid feces and soft feces were noted. These observations are common in beagle dogs and were considered stress-induced and not test article-related.
# healthy male subjects = assay: Human Phase 0 microdose study: tolerability; assay type: in vivo; details: oral and intravenous administrations, 100 μg
# Protocol: This study was designed to assess the absorption of M4N when administered to humans as a sub-therapeutic dose either as a single oral dose under fed and fasted conditions or a single intravenous dose (Regimens A-C, respectively, in Table 24). The study was a three-way crossover study design in a target population of healthy male subjects and consisted of three study periods of approximately 35 hours duration, each separated by a minimum period of at least 7 days between dosing. During the course of each study period, pharmacokinetic blood samples were taken at specified time points after dosing and urine was collected over pre-defined time intervals. The subjects were able to leave the clinical unit after the completion of study specific procedures at 24 hours post-dose.
# [1] = 40 mg/mL M4N/PEG 300 stability: visual appearance; assay type: physicochemical
# Protocol: The stability of 40 mg/mL M4N dissolved in 100% PEG 300 was evaluated up to 24 hours incubation at 30° C., 45° C. and 60° C. A stock 40 mg/mL M4N in PEG 300 was prepared at 60° C., following the procedure set forth in Example 17. Subsequently, aliquots were removed and incubated at the appropriate temperature. Samples were rotated at 450 rpm during the entire course of incubation. Visual observations and RP-HPLC data were collected throughout. […] The formation of crystals coincided with a loss of soluble M4N (Table 30). The 40 mg/mL M4N/PEG 300 samples incubated at 45° C. and 60° C. were stable after 24 hours incubation as assessed by visual observations and RP-HPLC analysis (Tables 29 and 30).
# [2] = test system: C-33A, an HPV-negative human cervical cancer cell line; assay: Cell proliferation and cell death, trypan blue exclusion, C-33A cells; assay type: cell-based; details: for Proliferation Rate: treated/untreated cells
# Protocol: M4N in 10% (w/v) HP-β-CD and 25% (v/v) PEG 300 (hereafter, the “CPE formulation”), M4N in 30% (w/v) HP-β-CD and 25% (v/v) PEG 300 (hereafter, the “CPE 25/30 formulation”) and M4N in 27% (w/v) HP-β-CD and 33% (v/v) PEG 300 (hereafter, the “CPE 33/27 formulation”) was tested for their effects on cell death and proliferation on two different tumor cell lines: HeLa, an HPV-18 positive human cervical cancer cell line, and C-33A, an HPV-negative human cervical cancer cell line M4N in DMSO was also tested in parallel. Both tumor cell lines were treated with increasing amounts of M4N: 0 μM, 20 μM, 40 μM, 60 μM and 80 μM, for 72 hr with the DMSO or the CPE formulation. Each formulation was added to total 1% of the growth media (Minimal Essential Medium with L-glutamine supplemented with 10% fetal bovine serum, 1 mM sodium pyruvate, 1× non-essential amino acid solution, and 1,000 IU/mL penicillin/1,000 μg/mL streptomycin solution). Control cells were grown under the same conditions and were left untreated. After 72 hr of treatment or no treatment, the total number of cells and the number of live cells in each sample were counted, using the trypan blue exclusion method. The cell proliferation rate and the percentage of dead cells in each sample were analyzed. Results of this experiment are shown in FIG. 1, FIG. 2, and Tables 6 through 12.
# FIG. 1 is a graphical representation of the ratio of the number of treated cells/number of untreated cells plotted against increasing concentrations of M4N in either the DMSO formulation or the CPE formulation for treatment of the C-33A cells and HeLa cells. FIG. 2 is a graphical representation of the percentage of dead cells plotted against increasing concentrations of M4N and in either DMSO formulation or the CPE formulation for treatment of the two cancer cell lines, C-33A and HeLa cells in culture.
# [3] = 200 mg/kg/day, continued daily dosing phase
# [4] = M4N 20 μM in CPE formulation, 72 hr
# [5] = M4N 60 μM in CPE formulation, 72 hr
# [6] = M4N 80 μM in CPE formulation, 72 hr
compound,measurement,setting,value
"COc1ccc(C[C@@H](C)[C@@H](C)Cc2ccc(OC)c(OC)c2)cc1OC [Formulation M4N, meso-1,4-bis(3,4-dimethoxyphenyl)-2,3-dimethylbutane]",clinical observations: ptosis and hyperactivity,Sprague-Dawley rats; [3],ptosis and hyperactivity occurred in one male and one female rat
same,clinical observations: tremors,Sprague-Dawley rats; [3],tremors did occur in one male and one female rat
same,mortality,"Sprague-Dawley rats; 100, 150 or 200 mg/kg M4N in 10% HP-β-CD in PEG 300 (6.25 mg/mL), IV infusion 8 mL/kg/hr",No obvious mortality related to M4N occurred
same,doses that appeared to be tolerated,Sprague-Dawley rats; for up to eight consecutive days,≤ 200 mg/kg/day
same,body weight,Sprague-Dawley rats; male and female rats,gained weight throughout the study
same,"injection site histology, treated vs controls",Beagle dogs; Group 3 (90 mg/kg) vs Group 1 (vehicle),more irritating than the vehicle
same,gross necropsy findings,Beagle dogs; Groups 1 and 3,No other gross findings
same,detailed clinical observations,"Beagle dogs; Groups 2, 3 and 4 (45 or 90 mg/kg), daily IV infusion for 7 days, 30% HP-β-CD and 25% PEG 300",transient reversible uncoordination of hindlimbs
same,adverse events,healthy male subjects,no serious or severe adverse events
same,tolerability of study formulations,healthy male subjects,well tolerated
same,visual observation,"[1]; 40 mg/mL M4N/PEG 300, 6 hours at 30° C.",tiny crystals were observed
same,stability by visual observations and RP-HPLC,"[1]; 40 mg/mL M4N/PEG 300, 24 hours at 45° C. and 60° C.",stable
same,"cell death, share of the cell population",[2]; 80 μM or […] M4N in CPE formulation,about 20%
same,"cell death, share of the cell population",[2]; 80 μM or […] M4N in DMSO formulation,about 40%
same,M4N sufficient to cause about a 50% inhibition in cell proliferation,"[2]; CPE formulation, 72 hr",~7.2 µg/mL
same,% Dead Cells,[2]; [4],7.0%
same,% Viability,[2]; [4],93.0%
same,Proliferation Rate,[2]; [4],0.43
same,% Dead Cells,"[2]; M4N 20 μM in DMSO, 72 hr",17.4%
same,% Viability,"[2]; M4N 20 μM in DMSO, 72 hr",82.6%
same,Proliferation Rate,"[2]; M4N 20 μM in DMSO, 72 hr",0.20
same,Proliferation Rate,"[2]; M4N 40 μM in CPE formulation, 72 hr",0.43
same,% Dead Cells,"[2]; M4N 40 μM in DMSO, 72 hr",33.0%
same,% Viability,"[2]; M4N 40 μM in DMSO, 72 hr",67.0%
same,Proliferation Rate,"[2]; M4N 40 μM in DMSO, 72 hr",0.15
same,% Dead Cells,[2]; [5],10.6%
same,% Viability,[2]; [5],89.4%
same,Proliferation Rate,[2]; [5],0.22
same,% Dead Cells,"[2]; M4N 60 μM in DMSO, 72 hr",39.6%
same,% Viability,"[2]; M4N 60 μM in DMSO, 72 hr",60.4%
same,Proliferation Rate,"[2]; M4N 60 μM in DMSO, 72 hr",0.14
same,% Dead Cells,[2]; [6],22.5%
same,% Viability,[2]; [6],77.5%
same,Proliferation Rate,[2]; [6],0.15
same,% Dead Cells,"[2]; M4N 80 μM in DMSO, 72 hr",43.3%
same,% Viability,"[2]; M4N 80 μM in DMSO, 72 hr",56.7%
same,Proliferation Rate,"[2]; M4N 80 μM in DMSO, 72 hr",0.11
same,Cell proliferation rate,[2]; M4N in DMSO or CPE formulation vs non-M4N-treated controls in the same formulation,reduced
